Reference: patent publication US20230146455A1, “TREATMENT OF INFLAMMATORY DISEASES WITH PEPTIDES AND PHARMACEUTICAL COMPOSITIONS” (Yuyu Pharma, Inc., priority 2020, published 2023)
Several values for one entry are separate records, joined by “and”; a condition that tells them apart may be missing. Equal entries are not always repeated. Where a SMILES comes first, the peptide text is derived from it. [ ]: non-standard residue; d: D form. Hyp = O=C(O)[C@@H]1C[C@@H](O)CN1

Key:
[1] = test system: CCL20/MIP-3 alpha; test: Example 9 Luminex, LPS hPBMCs: CCL20/MIP-3 alpha; type: cell-based, human; settings: for conc/live cell, CCL20/MIP-3 alpha / Concentration, CCL20/MIP-3 alpha / MFI, CCL20/MIP-3 alpha: no LPS
Protocol: (§1) Treatment Human PBMCs were pretreated with YY-101, YDE-011 and YDE-043 or reference compound; Xiidra® at various concentration (ranging from 1 nM to 100 uM) for 2 h before stimulation. An equal volume of 0.5% DMSO was used as a vehicle control. Then, the cells were treated with LPS at 5 ug/ml. The supernatants from treated cells were harvested at 24 h and placed in a 96 well for Luminex cytokine & chemokine profiling using a Luminex 200 multiplex assay (Luminex; R&D system, USA).
(§2) The main study arm with triplicate wells per group in a 24-well plate: • 1. Blank • 2. PBMC: 0.5% DMSO • 3. PBMC+LPS (5 ug/ml) • 4. PBMC+YY-101 100 uM • 5. PBMC+YY-101 10 uM • 6. PBMC+YY-101 1 uM • 7. PBMC+YY-101 0.1 uM • 8. PBMC+YY-101 0.01 uM • 9. PBMC+LPS (5 ug/ml)+Xiidra®100 uM • 10. PBMC+LPS (5 ug/ml)+Xiidra® 10 uM • 11. PBMC+LPS (5 ug/ml)+Xiidra® 1 uM • 12. PBMC+LPS (5 ug/ml)+Xiidra®0.1 uM • 13. PBMC+LPS (5 ug/ml)+Xiidra®0.01 uM • 14. PBMC+LPS (5 ug/ml)+Xiidra®0.001 uM • 15. PBMC+LPS (5 ug/ml)+YY-101 100 uM • 16. PBMC+LPS (5 ug/ml)+YY-101 10 uM • 17. PBMC+LPS (5 ug/ml)+YY-101 1 uM • 18. PBMC+LPS (5 ug/ml)+YY-101 0.1 uM • 19. PBMC+LPS (5 ug/ml)+YY-101 0.01 uM • 20. PBMC+LPS (5 ug/ml)+YY-101 0.001 uM • 21. PBMC+LPS (5 ug/ml)+YDE-011 100 uM • 22. PBMC+LPS (5 ug/ml)+YDE-011 10 uM • 23. PBMC+LPS (5 ug/ml)+YDE-011 1 uM • 24. PBMC+LPS (5 ug/ml)+YDE-011 0.1 uM • 25. PBMC+LPS (5 ug/ml)+YDE-011 0.01 uM • 26. PBMC+LPS (5 ug/ml)+YDE-011 0.001 uM • 27. PBMC+LPS (5 ug/ml)+YDE-043 100 uM • 28. PBMC+LPS (5 ug/ml)+YDE-043 10 uM • 29. PBMC+LPS (5 ug/ml)+YDE-043 1 uM • 30. PBMC+LPS (5 ug/ml)+YDE-043 0.1 uM • 31. PBMC+LPS (5 ug/ml)+YDE-043 0.01 uM • 32. PBMC+LPS (5 ug/ml)+YDE-043 0.001 uM
(§3) Multiplex assay was used to measure 30 cytokines and chemokines. The 1:2, 1:10 and 1:200 diluted cell supernatant and serial dilution of the standard were dispensed into a 96 well plate at 50 ul/well. Then, the pre-mixed cocktail of antibody-coated magnetic beads was dispensed at 50 ul/well and incubated at room temperature for 2 h in a horizontal orbital microplate shaker at 800±500 rpm. The beads were washed using a magnetic device to prevent loss. The biotin-antibody was dispensed in 50 ul of each well and incubated at room temperature for 1 h in a shaker at 800±500 rpm. After washing, streptavidin-PE was added at 50 ul/well and incubated at room temperature for 30 min in a shaker under the same conditions. Finally, after washing, wash buffer (100 ul/well) was added to the plate and incubated in a shaker for 2 min. The Luminex™ 200 setting were set according to the manufacturer's protocol. The data was calculated with a standard five-parameter logistic nonlinear regression analysis of the data (xPonent software 4.2, USA). The levels of cytokine/chemokine are normalized to the live cell counts (1×10^5 cells/mL) and presented as concentrations per mL (pg/mL or ng/mL).

[2] = test system: GM-CSF; test: Example 9 Luminex, LPS hPBMCs: GM-CSF; type: cell-based, human
Protocol: as §1, §2, §3

[3] = PBMC + test article 10 uM, individual replicate
[4] = PBMC + test article 100 uM, Mean
[5] = PBMC + test article 100 uM, individual replicate
[6] = PBMC + LPS(5 ug/ml) + test article 0.001 uM, Mean
[7] = PBMC + LPS(5 ug/ml) + test article 0.001 uM, single replicates
[8] = PBMC + LPS(5 ug/ml) + test article 0.01 uM, Mean
[9] = PBMC + LPS(5 ug/ml) + test article 0.01 uM, single replicates
[10] = PBMC + LPS(5 ug/ml) + test article 0.1 uM, Mean
[11] = PBMC + LPS(5 ug/ml) + test article 0.1 uM, single replicates
[12] = PBMC + LPS(5 ug/ml) + test article 1 uM, Mean
[13] = PBMC + LPS(5 ug/ml) + test article 1 uM, single replicates
[14] = PBMC + LPS(5 ug/ml) + test article 10 uM, Mean
[15] = PBMC + LPS(5 ug/ml) + test article 10 uM, single replicates
[16] = PBMC + LPS(5 ug/ml) + test article 100 uM, Mean
[17] = PBMC + LPS(5 ug/ml) + test article 100 uM, single replicates
[18] = PBMC + test article 0.01 uM, no LPS, Mean
[19] = PBMC + test article 0.01 uM, no LPS, single replicates
[20] = PBMC + test article 0.1 uM, no LPS, Mean
[21] = PBMC + test article 0.1 uM, no LPS, single replicates
[22] = PBMC + test article 1 uM, no LPS, Mean
[23] = PBMC + test article 1 uM, no LPS, single replicates
[24] = PBMC + test article 10 uM, no LPS, Mean
[25] = PBMC + test article 10 uM, no LPS, single replicates
[26] = PBMC + test article 100 uM, no LPS, Mean
[27] = PBMC + test article 100 uM, no LPS, single replicates

CC(C)C[C@H](NC(=O)CNC(=O)[C@H](CC(=O)O)NC(=O)[C@H](CCC(N)=O)NC(=O)CNC(=O)[C@@H]1C[C@@H](O)CN1)C(=O)N[C@@H](C)C(=O)NCC(=O)N1CCC[C@H]1C(=O)N[C@@H](CCCCN)C(=O)O [YY-101] (H-[Hyp]GQDGLAGPK-OH; N-terminus and C-terminus assumed)
conc/live cell, CCL20/MIP-3 alpha ([1]; PBMC + test article 10 uM, Mean): 6.6 pg/10^5 | Concentration, CCL20/MIP-3 alpha [1, 3]: 57.4 pg/mL and 25.3 pg/mL | MFI, CCL20/MIP-3 alpha [1, 3]: 51.5 and 21.5 | conc/live cell, CCL20/MIP-3 alpha [1, 3]: 9.0 pg/10^5 and 4.1 pg/10^5 | Concentration, CCL20/MIP-3 alpha [1, 4]: 22.4 pg/mL | MFI, CCL20/MIP-3 alpha [1, 4]: 19.3 | conc/live cell, CCL20/MIP-3 alpha [1, 4]: 3.4 pg/10^5 | Concentration, CCL20/MIP-3 alpha [1, 5]: 29.8 pg/mL and 14.9 pg/mL | MFI, CCL20/MIP-3 alpha [1, 5]: 25.5 and 13.0 | conc/live cell, CCL20/MIP-3 alpha [1, 5]: 4.7 pg/10^5 and 2.1 pg/10^5 | LPS-induced CCL20 levels (in words) ([1]; at 100.iM, LPS 5 ug/mL 24 hrs): further increased | GM-CSF Concentration [2, 6]: 159.8 pg/mL | GM-CSF conc/live cell [2, 6]: 24.7 pg/10^5 | GM-CSF Concentration [2, 7]: 138.9 pg/mL and 160.4 pg/mL and 180.1 pg/mL | GM-CSF conc/live cell [2, 7]: 24.4 pg/10^5 and 22.6 pg/10^5 and 27.3 pg/10^5 | GM-CSF Concentration [2, 8]: 159.0 pg/mL | GM-CSF conc/live cell [2, 8]: 25.8 pg/10^5 | GM-CSF Concentration [2, 9]: 164.4 pg/mL and 159.6 pg/mL and 153.1 pg/mL | GM-CSF conc/live cell [2, 9]: 25.7 pg/10^5 and 26.6 pg/10^5 and 25.1 pg/10^5 | GM-CSF Concentration [2, 10]: 139.7 pg/mL | GM-CSF conc/live cell [2, 10]: 23.9 pg/10^5 | GM-CSF Concentration [2, 11]: 150.7 pg/mL and 135.6 pg/mL and 132.7 pg/mL | GM-CSF conc/live cell [2, 11]: 24.3 pg/10^5 and 26.1 pg/10^5 and 21.4 pg/10^5 | GM-CSF Concentration [2, 12]: 141.2 pg/mL | GM-CSF conc/live cell [2, 12]: 21.7 pg/10^5 | GM-CSF Concentration [2, 13]: 137.2 pg/mL and 133.1 pg/mL and 153.1 pg/mL | GM-CSF conc/live cell [2, 13]: 21.8 pg/10^5 and 18.8 pg/10^5 and 24.7 pg/10^5 | GM-CSF Concentration [2, 14]: 148.1 pg/mL | GM-CSF conc/live cell [2, 14]: 22.5 pg/10^5 | GM-CSF Concentration [2, 15]: 153.1 pg/mL and 143.8 pg/mL and 147.4 pg/mL | GM-CSF conc/live cell [2, 15]: 25.5 pg/10^5 and 22.5 pg/10^5 and 19.4 pg/10^5 | GM-CSF Concentration [2, 16]: 224.0 pg/mL | GM-CSF conc/live cell [2, 16]: 38.7 pg/10^5 | GM-CSF Concentration [2, 17]: 239.6 pg/ml and 216.3 pg/ml (2×) | GM-CSF conc/live cell [2, 17]: 38.0 pg/10^5 and 34.9 pg/10^5 and 43.3 pg/10^5 | GM-CSF Concentration [2, 18]: 5.8 pg/mL | GM-CSF conc/live cell [2, 18]: 1.2 pg/10^5 | GM-CSF Concentration [2, 19]: 5.3 pg/mL and 6.3 pg/mL | GM-CSF conc/live cell [2, 19]: 1.0 pg/10^5 and 1.3 pg/10^5 | GM-CSF Concentration [2, 20]: 4.4 pg/mL | GM-CSF conc/live cell [2, 20]: 0.8 pg/10^5 | GM-CSF Concentration [2, 21]: 1.9 pg/mL and 6.9 pg/mL | GM-CSF conc/live cell [2, 21]: 0.4 pg/10^5 and 1.2 pg/10^5 | GM-CSF Concentration [2, 22]: 4.4 pg/mL | GM-CSF conc/live cell [2, 22]: 0.8 pg/10^5 | GM-CSF Concentration [2, 23]: 4.7 pg/mL and 4.2 pg/mL | GM-CSF conc/live cell [2, 23]: 0.9 pg/10^5 and 0.8 pg/10^5 | GM-CSF Concentration [2, 24]: 23.5 pg/mL | GM-CSF conc/live cell [2, 24]: 3.7 pg/10^5 | GM-CSF Concentration [2, 25]: 33.5 pg/mL and 13.5 pg/mL | GM-CSF conc/live cell [2, 25]: 5.2 pg/10^5 and 2.2 pg/10^5 | GM-CSF Concentration [2, 26]: 11.0 pg/mL | GM-CSF conc/live cell [2, 26]: 1.7 pg/10^5 | GM-CSF Concentration [2, 27]: 14.5 pg/mL and 7.4 pg/mL | GM-CSF conc/live cell [2, 27]: 2.3 pg/10^5 and 1.1 pg/10^5 | LPS-induced GM-CSF levels (in words) ([2]; at 100.iM, LPS 5 ug/mL 24 hrs): further increased
